The values below come from paper PMC12138161, “Structure–activity analysis of imino‐pyrimidinone‐fused pyrrolidines aids the development of dual plasmepsin V and plasmepsin X inhibitors” (The Febs Journal, 2025).

In one test the target is P. falciparum PMX (Plasmodium falciparum, UniProt Q8IAS0). Briefly: Plasmepsin X fluorogenic substrate cleavage assay. The note with it: for IC50: P. falciparum PMX, average of three independent experiments, read-out: PMX IC50 (SD). The class given is biochemical. Here is the method:
(§1) These fluorogenic assays follow protocols previously described. Compound potency was assessed with 10 point, threefold dilution series starting at 100 μM in duplicate per experiment and repeated in three independent experiments. Data were normalized to percent inhibition relative to 1% DMSO (high control) and either 1 μM WEHI‐600 for PMV and 1 μM WM382 for PMIX/PMX (low controls). IC50 values (relative inflection of dose–response curve) were calculated using a nonlinear regression four‐parameter fit analysis in DOTMATICS 5.3 (Dotmatics, Boston, MA, USA) and SPOTFIRE 7.11.1 (Goteborg, Sweden) software. The equation used was sigmoidal dose–response (variable slope), Y = bottom + (top − bottom)/(1 + 10 ((logIC50 − X) × Hill Slope)). Reported IC50 values were calculated based on the averages of three independent dataset. Assay robustness and data quality was assessed by Z′ > 0.5 (Z′ = 1 − (3 × (SD high + SD low)/(mean high − mean low))) and activity reproducibility of reference compound. WEHI‐600 (PMV) or WM382 (PMIX/PMX) were included as reference compounds in every experiment to monitor the assay performance. Any drift in activity greater than threefold from the average acceptable range and the experiment was rejected and repeated.

For test [1], the target named is T1, Plasmodium falciparum PMIX (Plasmodium falciparum, UniProt Q8ILG2).
T1 sequence (Q8ILG2 1-627): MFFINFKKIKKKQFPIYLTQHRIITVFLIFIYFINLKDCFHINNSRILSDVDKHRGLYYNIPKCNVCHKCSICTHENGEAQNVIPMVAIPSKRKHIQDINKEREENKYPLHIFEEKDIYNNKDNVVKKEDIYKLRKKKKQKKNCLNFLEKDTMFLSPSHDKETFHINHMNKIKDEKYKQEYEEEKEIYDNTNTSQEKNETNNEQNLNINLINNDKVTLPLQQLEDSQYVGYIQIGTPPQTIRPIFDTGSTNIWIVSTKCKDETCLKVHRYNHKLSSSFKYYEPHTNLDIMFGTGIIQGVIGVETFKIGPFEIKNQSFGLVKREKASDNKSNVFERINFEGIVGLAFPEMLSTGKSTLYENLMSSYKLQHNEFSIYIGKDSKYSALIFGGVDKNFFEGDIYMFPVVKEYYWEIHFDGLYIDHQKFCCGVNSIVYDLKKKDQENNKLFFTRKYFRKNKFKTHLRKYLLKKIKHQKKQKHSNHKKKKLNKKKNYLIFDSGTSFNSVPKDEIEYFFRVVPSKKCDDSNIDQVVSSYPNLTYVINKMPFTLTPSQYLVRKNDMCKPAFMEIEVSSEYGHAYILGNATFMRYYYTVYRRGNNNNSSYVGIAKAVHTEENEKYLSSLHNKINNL
Briefly: Plasmepsin IX fluorogenic substrate cleavage assay. The note with it: P. falciparum PMIX; average of three independent experiments; read-out: PMIX IC50 (SD). It is filed as biochemical. Here is the method: as §1

The subject of test [2] is P. falciparum 3D7 asexual parasites. Briefly: P. falciparum growth inhibition assay (LDH activity, 72 h). It is filed as cell-based, Plasmodium falciparum. The conditions noted are these: for EC50: Plasmodium falciparum, 3D7 asexual parasites, 72 h exposure, LDH activity, three independent experiments, read-out: Pf 3D7 EC50 (SD). As to the method: The ability of compounds to block growth of blood stage P. falciparum parasites was determined using a growth inhibition assay (GIA) as described. Compound potency was assessed with 10 point, threefold dilution series starting at 10 μM in duplicate per experiment and repeated in three independent experiments. Data were normalized to percent viability relative to 0.1% DMSO (high growth control) and 2.5 μM chloroquine (low growth control). EC50 values (relative inflection of dose–response curve) were calculated using a nonlinear regression four‐parameter fit analysis in DOTMATICS 5.3 and SPOTFIRE 7.11.1 software. The equation used was sigmoidal dose–response (variable slope), Y = bottom + (top − bottom)/(1 + 10 ((logEC50 − X) × Hill Slope)). Reported EC50 values were calculated on the average of three independent dataset. Assay robustness and data quality was assessed by Z′ > 0.5 (Z′ = 1 − (3 × (SD high + SD low)/(mean high − mean low))) and activity reproducibility of reference compound WM382, which was included in every experiment. Any drift in WM382 activity greater than threefold from the average acceptable range and the experiment was rejected and repeated.

Test [3] concerns the target T2, recombinant Plasmodium vivax PMV (Plasmodium vivax, UniProt A5K302).
T2 construct: PvPMV (residues R35–R476) was prepared similarly; gp67 signal peptide (N); TEV protease cleavage site + FLAG tag (C); made in house; host or cells: Sf21 insect cells
Put plainly: Plasmepsin V fluorogenic substrate cleavage assay. It is filed as biochemical. The conditions noted are these: for IC50: recombinant P. vivax PMV, average of three independent experiments, read-out: PMV IC50 (SD).
Description: To uncover nonpeptidomimetic drug‐like inhibitors of the aspartic protease PvPMV, we screened a library of 1298 compounds that were known to inhibit human aspartyl proteases. These compounds were selected by chemoinformatic structural diversity from a larger library of compounds that targeted human aspartyl proteases and has been used previously to identify hit compounds that inhibited P. falciparum growth. These hit compounds belonged to a single chemical class and were used to develop a lead compound WM382 that is a dual selective inhibitor of PMIX and PMX from P. falciparum and P. vivax. The screen utilized a FRET‐based assay with PvPMV and a fluorogenic EDANS‐DACBYL labeled peptide with the P. falciparum knob‐associated histidine‐rich protein (KAHRP) PEXEL motif amino acid sequence.
as §1

Values joined by “and” are separate entries in the source; they are usually repeats but may differ in a detail not shown here. Identical values can stand only once. A value given as a limit tells only on which side of the number the result lay.

Sequence of P. falciparum PMX (Q8IAS0 222-573): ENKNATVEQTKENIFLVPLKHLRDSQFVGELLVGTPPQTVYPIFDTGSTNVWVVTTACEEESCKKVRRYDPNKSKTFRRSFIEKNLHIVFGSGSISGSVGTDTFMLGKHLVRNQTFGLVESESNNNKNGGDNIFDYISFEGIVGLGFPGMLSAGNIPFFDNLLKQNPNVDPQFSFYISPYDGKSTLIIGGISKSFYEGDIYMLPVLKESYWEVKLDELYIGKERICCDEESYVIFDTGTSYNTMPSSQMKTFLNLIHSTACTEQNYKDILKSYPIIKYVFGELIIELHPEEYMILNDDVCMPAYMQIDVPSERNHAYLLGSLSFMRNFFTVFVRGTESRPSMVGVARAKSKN
T2 sequence (A5K302 35-476): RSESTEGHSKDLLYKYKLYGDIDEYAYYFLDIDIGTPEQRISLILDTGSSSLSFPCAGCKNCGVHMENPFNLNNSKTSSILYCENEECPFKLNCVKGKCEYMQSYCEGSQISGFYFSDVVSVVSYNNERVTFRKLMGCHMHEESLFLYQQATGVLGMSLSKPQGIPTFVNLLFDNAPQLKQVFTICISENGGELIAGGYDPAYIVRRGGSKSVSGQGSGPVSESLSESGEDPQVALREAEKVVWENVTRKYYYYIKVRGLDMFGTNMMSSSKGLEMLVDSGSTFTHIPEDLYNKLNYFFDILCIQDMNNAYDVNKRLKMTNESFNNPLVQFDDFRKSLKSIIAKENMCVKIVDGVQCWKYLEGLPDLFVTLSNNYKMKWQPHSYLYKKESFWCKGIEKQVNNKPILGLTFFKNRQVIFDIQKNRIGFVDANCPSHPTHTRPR

What is called IC50 is the midpoint of a concentration-inhibition curve. In general, EC50 refers to the concentration at which the effect is half-maximal. On to `CN1C(=N)NC2(c3cc(F)ccc3F)CN(c3ncccc3-c3ccccc3C(F)(F)F)CC2C1=O` (stereo not shown) [Compound 10], for which the half-maximal inhibitory concentration (IC50) on P. falciparum PMX is 1.28 µM; in test [1], 3.97 µM; in test [3] it was 3.45 µM. In addition, the EC50 in test [2] was over 10 µM.

Take `CN1C(=N)NC2(c3cc(F)ccc3F)CN(c3ncccc3-c3ccccc3F)CC2C1=O` (stereo not shown) [Compound 7]: the IC50 amounted to 1.33 µM on P. falciparum PMX, 4.53 µM in test [1] and 1.02 µM in test [3]. Moreover, the EC50 in test [2] is over 10 µM.

As to `CN1C(=N)NC2(c3cc(F)ccc3F)CN(c3ncccc3-c3sccc3Cl)CC2C1=O` (stereo not shown) [R/S‐WM396 (25)], the IC50 is 0.009 µM at P. falciparum PMX, 0.35 µM in test [1] and 1.11 µM in test [3]. In addition, at P. falciparum PMX (than the unsubstituted comparator analog 24), the “more potent against PMX” value was found to be 8 ×. In addition, in test [2], the EC50 was found to be 0.2 µM.

In the case of `CN1C(=N)NC2(c3cc(F)ccc3F)CN(c3ncccc3-c3ccccc3Cl)CC2C1=O` (stereo not shown) [R/S‐WM36 (8)], the figures for the IC50 (at P. falciparum PMX; in test [1]; in test [3]) were 1.1 µM, 4.87 µM and 0.807 µM, respectively. In addition, in test [2], the EC50 was over 10 µM. The “inhibition of P. falciparum asexual parasite replication / antimalarial activity (in words)” value in test [2] (blood stage) was “did not inhibit”.

For the compound `CN1C(=N)NC2(c3cc(F)ccc3F)CN(c3ncccc3-c3ccccc3)CC2C1=O` (stereo not shown) [Compound 6], the values for the IC50 (on P. falciparum PMX; in test [1]; in test [3]) were 1.07 µM, 3 µM and 0.44 µM, respectively. For the same compound, the EC50 in test [2] was over 10 µM.

Take `CN1C(=N)NC2(c3cc(F)ccc3F)CN(c3nn(C)cc3-c3ccccc3)CC2C1=O` (stereo not shown) [Compound 29]: the figures for the IC50 (on P. falciparum PMX; in test [1]; in test [3]) were 3.47 µM, 10.4 µM and 1.05 µM, respectively. Also, the EC50 in test [2] was over 10 µM.

For the compound `CN1C(=N)NC2(c3cc(F)ccc3F)CN(c3ncccc3-c3ccc(Cl)c(F)c3)CC2C1=O` (stereo not shown) [Compound 20], the IC50 at P. falciparum PMX was determined as 0.44 µM; in test [1], 1.15 µM; in test [3] it was 1.01 µM. The EC50 in test [2] is over 10 µM.

As for `CN1C(=N)NC2(c3cc(F)ccc3F)CN(c3ncccc3-c3ccc(Cl)cc3)CC2C1=O` (stereo not shown) [R/S‐WM48 (14), 6‐(3‐(4‐chlorophenyl)pyridin‐2‐yl)‐7a‐(2,5‐difluorophenyl)‐2‐imino‐3‐methylhexahydro‐1H‐pyrrolo[3,4‐d]pyrimidin‐4(4aH)‐one], the values for the IC50 (at P. falciparum PMX; in test [1]; in test [3]) were 0.343 µM, 1.08 µM and 0.357 µM, respectively. In addition, the EC50 in test [2] is over 10 µM.

For `CN1C(=N)NC2(c3cc(F)ccc3F)CN(c3ncccc3-c3cccc(Cl)c3)CC2C1=O` (stereo not shown) [Compound 12], the IC50 is 0.39 to 1.17 µM and 0.39 µM at P. falciparum PMX; 0.39 to 1.17 µM and 0.56 µM in test [1]; over 3.7 µM in test [3]. For the same compound, the EC50 in test [2] was over 10 µM.

As for `CN1C(=N)NC2(c3cc(F)ccc3F)CN(c3ncccc3-c3ccc(Cl)s3)CC2C1=O` (stereo not shown) [Compound 26], the figures for the IC50 (at P. falciparum PMX; in test [3]) were 0.07 µM and 0.61 µM, respectively. The EC50 in test [2] was determined as 2.5 µM.

As for `COc1ccc(-c2cccnc2N2CC3C(=O)N(C)C(=N)NC3(c3cc(F)ccc3F)C2)cc1` (stereo not shown) [Compound 15], the IC50 on P. falciparum PMX is 0.473 µM; in test [1] it was 2 µM; in test [3] it was 3.6 µM. In addition, the EC50 in test [2] was over 10 µM.

`Cc1ccccc1-c1cccnc1N1CC2C(=O)N(C)C(=N)NC2(c2cc(F)ccc2F)C1` (stereo not shown) [Compound 9]: the IC50 is 2.07 µM at P. falciparum PMX, 5.5 µM in test [1] and 0.61 µM in test [3]. Besides, in test [2], the EC50 is over 10 µM.

Regarding `COc1ccc(-c2cccnc2N2CC3C(=O)N(C)C(=N)NC3(c3cc(F)ccc3F)C2)c(Cl)c1` (stereo not shown) [Compound 23], the IC50 on P. falciparum PMX was found to be 0.42 µM; in test [1], 1.63 µM; in test [3], 3.17 µM. Also, the half-maximal effective concentration (EC50) in test [2] was over 10 µM.

On to `CN1C(=N)NC2(c3cc(F)ccc3F)CN(c3ncccc3-c3ccc(Cl)cc3Cl)CC2C1=O` (stereo not shown) [Compound 17], for which the IC50 on P. falciparum PMX is 1.07 µM; in test [1], 0.36 µM; in test [3] it was 0.517 µM. The EC50 in test [2] is over 10 µM.

As to `CN1C(=N)NC2(c3cc(F)ccc3F)CN(c3ncccc3-c3ccc(Cl)cc3F)CC2C1=O` (stereo not shown) [Compound 16], the IC50 stood at 1.33 µM on P. falciparum PMX, 0.417 µM in test [1] and 0.78 µM in test [3]. Besides, in test [2], the EC50 was over 10 µM.

Consider `CN1C(=N)NC2(c3cc(F)ccc3F)CN(c3ncsc3-c3ccccc3)CC2C1=O` (stereo not shown) [Compound 27], for which the IC50 at P. falciparum PMX is 0.473 µM; in test [1], 0.99 µM; in test [3], 0.44 µM. The EC50 in test [2] was over 10 µM.

Regarding `CN1C(=N)NC2(c3cc(F)ccc3F)CN(c3ncccc3-c3cccs3)CC2C1=O` (stereo not shown) [Compound 24], the IC50 on P. falciparum PMX came out at 0.067 µM; in test [1], 1.2 µM; in test [3], 1.23 µM. Besides, in test [2], the EC50 is 1.77 µM.

`CN1C(=N)NC2(c3cc(F)ccc3F)CN(c3ncccc3-c3ccc(F)cc3Cl)CC2C1=O` (stereo not shown) [Compound 21]: the IC50 is 0.99 µM at P. falciparum PMX, 3.23 µM in test [1] and 0.967 µM in test [3]. Also, the EC50 in test [2] is over 10 µM.

`COc1cccc(-c2cccnc2N2CC3C(=O)N(C)C(=N)NC3(c3cc(F)ccc3F)C2)c1` (stereo not shown) [Compound 13]: the IC50 at P. falciparum PMX was 0.39 to 1.17 µM and 0.473 µM; in test [1] it was 0.39 to 1.17 µM and 1.17 µM; in test [3], 1.5 µM. In test [2], the EC50 is over 10 µM.

As to `CN1C(=N)NC2(c3cc(F)ccc3F)CN(c3ncccc3-c3ccc(Cl)cc3C(F)(F)F)CC2C1=O` (stereo not shown) [Compound 18], the IC50 is 0.483 µM on P. falciparum PMX, 1.08 µM in test [1] and over 3.7 µM in test [3]. Also, the half-maximal effective concentration (EC50) in test [2] was over 10 µM.

Turning to `Cc1ccc(-c2cccnc2N2CC3C(=O)N(C)C(=N)NC3(c3cc(F)ccc3F)C2)c(Cl)c1` (stereo not shown) [Compound 22], the half-inhibitory concentration (IC50) on P. falciparum PMX came to 0.42 µM; in test [1], 1.63 µM; in test [3], 0.69 µM. For the same compound, the EC50 in test [2] is over 10 µM.

Take `COc1ccccc1-c1cccnc1N1CC2C(=O)N(C)C(=N)NC2(c2cc(F)ccc2F)C1` (stereo not shown) [Compound 11]: the IC50 is 7.5 µM on P. falciparum PMX, over 10 µM in test [1] and 0.303 µM in test [3]. For the same compound, in test [2], the EC50 is over 10 µM. In test [3] (compared with WM36 (8)), the “improvement of PMV inhibition” value was found to be 2.5 fold.

For `CN1C(=N)NC2(c3cc(F)ccc3F)CN(c3n[nH]cc3-c3ccccc3)CC2C1=O` (stereo not shown) [R/S‐WM447 (28), 7a‐(2,5‐difluorophenyl)‐2‐imino‐3‐methyl‐6‐(4‐phenyl‐1H‐pyrazol‐3‐yl)hexahydro‐1H‐pyrrolo[3,4‐d]pyrimidin‐4(4aH)‐one], the IC50 is 0.064 µM on P. falciparum PMX, 2.17 µM in test [1] and 0.683 µM in test [3]. The EC50 in test [2] was 1.53 µM.
